Tests used:
[1] = test system: rats; conditions: acute intravenous administration to rats; cited from earlier work
[2] = test system: NPC-derived HLCs; format: cell-based, human; conditions: for cholesterol accumulation in NPC-HLCs (filipin staining): 1 mM hydroxypropyl-cyclodextrin, FIG. 18
Protocol: For hepatocyte-like cell (HLC) induction, the culture medium of semi-confluent human iPS cells were switched from the iPS medium to the definitive endoderm differentiation medium containing RPMI1640 supplemented with 2% B27 (Life technologies), 100 ng/m1 Activin A and 1 mM Sodium butyrate (NaB, SIGMA). The NaB concentration is changed in 0.5 mM on day 2. On day 4, the cells were harvested and re-seeded onto Matrigel-coated dishes in hepatic differentiation medium containing DMEM supplemented with 20% KSR, 1 mM glutamine, 1 mM NEAA, 0.1 mM 2-mercaptoethanol (SIGMA), 1% Dimethyl sulfoxide (DMSO, SIGMA). CXCR4 expressions were examined by FACS on day 4. On day 11, the cells were harvested and re-cultured in the hepatic maturation medium containing L15 medium (SIGMA) supplemented with 8.3% FBS, 8.3% tryptose phosphate broth (SIGMA), 10 mM hydrocortisone 21-hemisuccinate (SIGMA), 1 mM insulin (SIGMA), 2 mM glutamine, lOng/ml Hepatocyte growth factor (HGF, R & D) and 20 ng/ml Oncostatin M (OSM, R & D). On day 18, the cells were used for various experiments. For the hydroxypropyl cyclodextrin treatments, HLCs were cultured with 0.1 mM or 1 mM of the hydroxypropyl cyclodextrins for four days. For Annexin and TUNEL stainings, HLCs are cultured for four days and a week from day 18, respectively.
(§1) Alkaline phosphatase staining was performed using the Leukocyte Alkaline Phosphatase kit (SIGMA). For immunocytochemistry, cells were fixed with PBS containing 4% paraformaldehyde for 30 min at 4° C. For the molecules localized in nucleus, samples were treated with 0.2% Triton X-100 for 15 min at room temperature (RT). The cells were washed three times with PBS containing 2% FBS and then incubated overnight at 4° C. in PBS containing 2% FBS with primary antibodies. Nucleuses were stained with Propidium Iodide (PI, WAKO, Japan) and 1 mg/ml Hoechst 33258 (Invitrogen). The list of the primary and secondary antibodies is described in Table 3. For Filipin staining, samples were washed with PBS three times after the fixing and incubated with PBS containing 1.5 mg/ml glycine for 10 min at RT. The samples were then treated with PBS containing 10% FBS and 50 mg/ml Filipin (SIGMA). The data was calculated by UV absorption (360/460) and analyzed with Developer Toolbox software of IN CELL ANALYZER 6000 (GE Healthcare). The number of insoluble p62 granules were counted by IN CELL ANALYZER 6000 (GE Healthcare). To investigate glycogen accumulation, Periodic acid Schiff (PAS) staining of hepatocyte-like cells were performed by PAS staining solution (Muto Pure chemicals, Tokyo, Japan), according to the manufacturer's protocol.
The inventors therefore treated the HLCs derived from normal and NPC-iPS cell lines with a series of 2-hydroxypropyl-cyclodextrins with different cavity sizes, and observed effect of a series of hydroxypropyl-cyclodextrins. HLCs were cultured with 1 mM of the indicated hydroxypropyl-cyclodextrin for 4 days, stained with filipin and analyzed with an IN CELL ANALYSER (GE Healthcare) (FIG. 18).
(§2) The size of HLCs is decreased by the treatments with HPBCD and HPGCD (data not shown). Effects of various concentration of HPBCD and HPGCD in NPC-derived HLCs was observes. HLCs were cultured with HPBCD or HPGCD for 4 days, stained with filipin and analyzed with an IN CELL ANALYSER (GE Healthcare).

[3] = test system: isolated erythrocyte; conditions: in vitro; cited from earlier work
[4] = test system: NPC-derived HLCs; experiment: Cell size of HLCs; format: cell-based, human; conditions: data not shown
Protocol: The cell sizes of albumin-positive cells was calculated by Developer Toolbox software of IN CELL ANALYZER 6000 (GE Healthcare).
as §2

[5] = test system: NPC-derived HLCs; experiment: Measurement of ATP in HLCs; format: cell-based, human; conditions: 1 mM HPCD, 4 days; FIG. 21
Protocol: Hepatocyte-like cells derived from the iPSC lines were cultured in DMEM medium in the absence of glucose for 24 hours and were then cultured in the DMEM medium containing 10% FBS and high glucose for 6 hours. ATP was measured by ATP measurement Kit (TOYO INK), according to the manufacturer's protocol.
(§3) HLCs were culture with 1 mM 2-hydroxypropylcyclodextrins (HPCDs) for 4 days, and ATP level, expression levels of LC3 and p62, and insoluble p62 granules were measured.

[6] = test system: LC3; experiment: Immunoblot of LC3 expression in HLCs; format: cell-based, human; conditions: 1 mM HPCD, 4 days; FIG. 22
Protocol: (§4) Protein lysates were separated by SDS-PAGE and transferred to PVDF membrane. LC3-I and LCS3-II were detected by anti-LC3 antibody (Cell Signaling). The data are normalized to α-tubulin expression. The HLCs were solved in RIPA buffer and then insoluble p62 was collected as a pellet after the centrifuge of the samples.
as §3

[7] = test system: p62; experiment: Immunoblot of insoluble p62 in HLCs; format: cell-based, human; conditions: 1 mM HPCD, 4 days; FIG. 23
Protocol: as §4, §3

[8] = test system: p62; experiment: Count of insoluble p62 granules in HLCs (IN CELL ANALYZER); format: cell-based, human; conditions: 1 mM HPCD, 4 days; FIG. 24
Protocol: as §1, with “To investigate glycogen accumulation, Periodic acid Schiff (PAS) staining of hepatocyte-like cells were performed by PAS staining solution (Muto Pure chemicals, Tokyo, Japan), according to the manufacturer's protocol.” left out
as §3

[9] = test system: normal mice; experiment: Acute toxicity test in normal mice; format: in vivo, mouse; conditions: 14.4 mM, 19.18 ml/g subcutaneous, 8-week-old normal mice; FIG. 34
Protocol: To confirm the excellent safety of HPGCD, acute toxicity was tested using normal mice. 14.4 mM HPBCD or HPGCD were injected in the amount of 19.18 ml/g into subcutaneous tissues of 8-week-old mice (n=10), and then survival rates were calculated.

[10] = test system: NPC-derived HLCs; format: cell-based, human; conditions: cells treated during HLC differentiation; FIG. 20
[11] = test system: Npc1 gene-defective (Npc1−/−) mice; conditions: cited from earlier work
[12] = test system: NPC child patients; conditions: intravenous instillation 2500 mg/kg per time, 1 to 3 times per week, more than 1 year; cited from earlier work
[13] = test system: NPC1-defective cells; conditions: reported; cited from earlier work

## OC[C@H]1O[C@@H]2O[C@H]3[C@H](O)[C@@H](O)[C@@H](O[C@H]4[C@H](O)[C@@H](O)[C@@H](O[C@H]5[C@H](O)[C@@H](O)[C@@H](O[C@H]6[C@H](O)[C@@H](O)[C@@H](O[C@H]7[C@H](O)[C@@H](O)[C@@H](O[C@H]8[C@H](O)[C@@H](O)[C@@H](O[C@H]1[C@H](O)[C@H]2O)O[C@@H]8CO)O[C@@H]7CO)O[C@@H]6CO)O[C@@H]5CO)O[C@@H]4CO)O[C@@H]3CO [β-cyclodextrin]
[1]
  intravenous dose showing lethality to 50% of population (LD50 value): 788 mg/kg

## OC[C@H]1O[C@@H]2O[C@H]3[C@H](O)[C@@H](O)[C@@H](O[C@H]4[C@H](O)[C@@H](O)[C@@H](O[C@H]5[C@H](O)[C@@H](O)[C@@H](O[C@H]6[C@H](O)[C@@H](O)[C@@H](O[C@H]7[C@H](O)[C@@H](O)[C@@H](O[C@H]8[C@H](O)[C@@H](O)[C@@H](O[C@H]9[C@H](O)[C@@H](O)[C@@H](O[C@H]1[C@H](O)[C@H]2O)O[C@@H]9CO)O[C@@H]8CO)O[C@@H]7CO)O[C@@H]6CO)O[C@@H]5CO)O[C@@H]4CO)O[C@@H]3CO [γ-cyclodextrin]
[1]
  intravenous dose showing lethality to 50% of population (LD50 value): > 3750 mg/kg

## 2-Hydroxypropyl-α-cyclodextrin [HPACD]
[2]
  activity on hepatocyte-like cells differentiation-induced from NPC patient-derived iPS cells: no activity at all
[2]; 4 days
  cholesterol accumulation in NPC-HLCs (filipin staining): did not show any effect on cholesterol accumulation
[3]
  hemolytic activity (order): HPBCD>HPACD>HPGCD

## OC[C@H]1O[C@@H]2O[C@H]3[C@H](O)[C@@H](O)[C@@H](O[C@H]4[C@H](O)[C@@H](O)[C@@H](O[C@H]5[C@H](O)[C@@H](O)[C@@H](O[C@H]6[C@H](O)[C@@H](O)[C@@H](O[C@H]7[C@H](O)[C@@H](O)[C@@H](O[C@H]1[C@H](O)[C@H]2O)O[C@@H]7CO)O[C@@H]6CO)O[C@@H]5CO)O[C@@H]4CO)O[C@@H]3CO [α-cyclodextrin]
[1]
  intravenous dose showing lethality to 50% of population (LD50 value): 1000 mg/kg

## CC(O)COC[C@H]1O[C@@H]2O[C@H]3[C@H](O)[C@@H](O)[C@@H](O[C@H]4[C@H](O)[C@@H](O)[C@@H](O[C@H]5[C@H](O)[C@@H](O)[C@@H](O[C@H]6[C@H](O)[C@@H](O)[C@@H](O[C@H]7[C@H](O)[C@@H](O)[C@@H](O[C@H]8[C@H](O)[C@@H](O)[C@@H](O[C@H]1[C@H](O)[C@H]2O)O[C@@H]8COCC(C)O)O[C@@H]7COCC(C)O)O[C@@H]6COCC(C)O)O[C@@H]5COCC(C)O)O[C@@H]4COCC(C)O)O[C@@H]3COCC(C)O (stereo partly drawn) [HPBCD, 2-hydroxypropyl-β-cyclodextrin]
[2]
  cholesterol accumulated in hepatocyte-like cells derived from NPC: removed cholesterol accumulated in hepatocyte-like cells derived from NPC
  function of the hepatocyte-like cells: recovered the function of the hepatocyte-like cells
[2]; 4 days
  cholesterol accumulation in NPC-HLCs (filipin staining): significantly decreased
[2]; low concentration 100 μM, 4 days, FIG. 19
  cholesterol accumulation in NPC-derived HLCs (filipin staining): ineffective for reducing cholesterol accumulation
[4]
  size of HLCs: decreased
[5]
  ATP level: recovered
[6]
  expression level of LC3: recovered to normal levels
[7]
  amount of insoluble p62: reduced the amount of insoluble p62
[8]
  proportion of HLCs carrying more than 40 granules of insoluble p62 aggregation: greatly reduced
[9]
  survival after injection (acute toxicity): Almost all mice injected with HPBCD dies up to 72 hours after injection
[10]
  free cholesterol accumulation, treatment during HLC differentiation: effective at the intermediate stages in hepatic differentiation
[3]
  hemolytic activity (order): HPBCD>HPACD>HPGCD
[11]; directly administered into the brain
  improving effect compared with systemic administration: increased a few hundreds times
[11]; intravenous administration
  medical state or survival: effective in improving the medical state or prolonging survival
[12]
  nervous symptom: has not been improved yet
  splenohepatomegaly and brain wave: certain effect of reduction of splenohepatomegaly and improvement in a brain wave
[13]
  cholesterol accumulation in NPC1-defective cells: effective for reducing of cholesterol accumulation
